Assay results as given in PubChem BioAssay (NCI).
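Interpolation was linear, between the two tested concentrations surrounding the appropriate level; five concentrations were tested over 48 hours in 96-well plates. TGI marks complete inhibition of growth.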

Assays:
Test in all cases: growth of human tumour cells (NCI), 48 h
BT-549 breast = test system: BT-549 breast
COLO 205 colon = test system: COLO 205 colon
EKVX NSCLC = test system: EKVX NSCLC
HCT-116 colon = test system: HCT-116 colon
HCT-15 colon = test system: HCT-15 colon
MCF7 breast = test system: MCF7 breast
NCI/ADR-RES ovarian = test system: NCI/ADR-RES ovarian
SF-268 CNS = test system: SF-268 CNS
SN12C renal = test system: SN12C renal
SNB-75 CNS = test system: SNB-75 CNS

Compound	TGI (BT-549 breast)	TGI (COLO 205 colon)	TGI (EKVX NSCLC)	TGI (HCT-116 colon)	TGI (HCT-15 colon)	TGI (MCF7 breast)	TGI (NCI/ADR-RES ovarian)	TGI (SF-268 CNS)	TGI (SN12C renal)	TGI (SNB-75 CNS)
O=C1OC(C2OC(=O)c3cc(O)c(O)c(O)c3-c3c(O)c(O)c4oc(=O)c5c(c(O)c(O)c6oc(=O)c3c4c65)-c3c(cc(O)c(O)c3O)C(=O)OCC2O)C2OC(=O)c3c(c(O)c(O)c(O)c3[C@H]2O)-c2c1cc(O)c(O)c2O (stereo not given in full)	> 100 µM	36.6 µM	41 µM	38.8 µM	33.3 µM	21.5 µM	73.5 µM	78.5 µM	36.4 µM	63.7 µM
O=C(CCc1ccccc1CO)NCCc1ccccc1	> 100 µM	> 100 µM	> 100 µM	> 100 µM	> 100 µM	> 100 µM	> 100 µM	> 100 µM	> 100 µM	> 100 µM
COc1ccc(C(C#N)NCCCCCCNC(C#N)c2ccc(OC)cc2)cc1 (stereo not given)	> 100 µM	> 100 µM	> 100 µM	> 100 µM	> 100 µM	> 100 µM	> 100 µM	> 100 µM	> 100 µM	> 100 µM
CC(=O)O[C@H]1C(=O)[C@@]2(C)[C@H]([C@H](OC(=O)c3ccccc3)[C@]3(O)C[C@H](OC(=O)[C@H](O)[C@@H](NC(=O)CC(C)C)c4ccccc4)C(C)=C1C3(C)C)[C@]1(OC(C)=O)CO[C@@H]1C[C@@H]2O	> 10 µM	0.0112 µM	> 10 µM	> 10 µM	> 10 µM	> 10 µM	> 10 µM	> 10 µM	> 10 µM	0.0253 µM
CC1=C(C(=O)NCC(C)O)CC(C(=O)NCC(C)O)=C(C)N1 (stereo not given)	> 100 µM	> 100 µM	> 100 µM	> 100 µM	> 100 µM	> 100 µM	> 100 µM	> 100 µM	> 100 µM	> 100 µM
Cc1ccc([N+](=O)[O-])cc1S(=O)(=O)Nc1ccc(C2=NNC(c3cccs3)C2)cc1 (stereo not given)	83.8 µM	35.6 µM	64.2 µM	63.5 µM	> 100 µM	47.8 µM	94.6 µM	> 100 µM	90.6 µM	> 100 µM
O[C@H]1[C@H](O)[C@H](O)CN2CCC[C@@H](O)[C@H]12	> 100 µM	> 100 µM	> 100 µM	> 100 µM	> 100 µM	> 100 µM	> 100 µM	> 100 µM	> 100 µM	> 100 µM
CC1(C)C[C@H](O)[C@H](O)[C@]23C(=O)O[C@H](O)[C@H]2C(C=O)=CC[C@@H]13	> 100 µM	> 100 µM	> 100 µM	> 100 µM	> 100 µM	> 100 µM	> 100 µM	> 100 µM	> 100 µM	> 100 µM
NCCCc1c(-c2ccccc2)nc(N)[nH]c1=O	> 100 µM	> 100 µM	> 100 µM	> 100 µM	> 100 µM	> 100 µM	> 100 µM	> 100 µM	> 100 µM	> 100 µM
